Converted amounts (≈) assume the structure as drawn. Where two headings read alike, the source gives them in different places.
Assays:
[1] = Chemical stability: storage at different humidity and temperature, HPLC for percentage of impurities; format: physicochemical
Experimental: Compound (I-a) was stored under different conditions of humidity and temperature. After storage, the salt was analyzed by High Performance Liquid Chromatography (HPLC) for percentage of impurities.

Hygroscopicity = format: physicochemical
Solubility data = format: physicochemical
From the text: Table 1 lists solubility data of free base (E) 4-[[4-[[4-(2-cyanoethenyl)-2,6-dimethylphenyl]amino]-2-pyrimidinyl]amino]benzonitrile and of the compound of formula (I-a).

BCS classification = format: physicochemical
From the text: A scientific framework for classifying drug substances based on their aqueous solubility and intestinal permeability is the Biopharmaceutics Classification System or BCS. […] Free base and fumarate salt may be classified as BCS class 2 compounds.

[2] = Physical stability of the crystal structure after storage, infrared spectroscopy; format: physicochemical; conditions: six weeks storage, conditions of Table 2, infrared spectroscopy
Experimental: The stability of the crystal structure of the compound of formula (I-a) was studied after storage for a period of six weeks under different conditions of humidity and temperature. The same conditions as described in Table 2 were applied. After storage the compound was analyzed with infrared spectroscopy.

HIV = conditions: wild type of HIV as well as drug and multi drug resistant strains of HIV; cited from earlier work

Cc1cc(/C=C/C#N)cc(C)c1Nc1ccnc(Nc2ccc(C#N)cc2)n1 [Compound of formula (I-a)]
Sum of impurities % ([1]; 40° C./75% RH, 4 weeks): 0.62 %, w/w | Sum of impurities % ([1]; 40° C./75% RH, 8 weeks): 0.61 %, w/w | Sum of impurities % ([1]; 50° C./air, 4 weeks): 0.62 %, w/w | Sum of impurities % ([1]; 50° C./air, 8 weeks): 0.61 %, w/w | Sum of impurities % ([1]; RT/56% RH, 4 weeks): 0.58 %, w/w | Sum of impurities % ([1]; RT/56% RH, 8 weeks): 0.64 %, w/w | Sum of impurities % ([1]; RT/75% RH, 4 weeks): 0.59 %, w/w | Sum of impurities % ([1]; RT/75% RH, 8 weeks): 0.65 %, w/w | Sum of impurities % ([1]; RT/<5% RH, 4 weeks): 0.61 %, w/w | Sum of impurities % ([1]; RT/<5% RH, 8 weeks): 0.62 %, w/w | Sum of impurities % ([1]; Reference, 1 week): 0.58 %, w/w | chemical stability (in words) ([1]; storage conditions of Table 2): chemically stable | hygroscopicity (Hygroscopicity): not hygroscopic | Concentration in mg/ml, 0.01 N HCl (Solubility data; solubility in 0.01 N HCl): 0.013 mg/mL | solubility (Solubility data; water, solubility in water, read-out: Concentration in mg/ml, Water): 0.0009 mg/mL | solubility in water and in HCl (in words) (Solubility data; water): poor solubility | BCS class (BCS classification): BCS class 2 | stability of the crystal structure [2]: No changes in crystal structure were observed

Cc1cc(/C=C/C#N)cc(C)c1Nc1ccnc(Nc2ccc(C#N)cc2)n1 [Free base (E-isomer), (E) 4-[[4-[[4-(2-cyanoethenyl)-2,6-dimethylphenyl]amino]-2-pyrimidinyl]amino]benzonitrile]
solubility (Solubility data; 0.01 N HCl, simulated gastric fluid, solubility in 0.01 N HCl, read-out: Concentration in mg/ml, 0.01 N HCl): 0.019 mg/mL (≈ 51.9 µM) | Concentration in mg/ml, PEG 400 (Solubility data; solubility in PEG 400): 40 mg/mL | Concentration in mg/ml, Water (Solubility data; solubility in water): 0.00002 mg/mL | solubility in water and in HCl (in words) (Solubility data; water): poor solubility | BCS class (BCS classification): BCS class 2

Cc1cc(C=CC#N)cc(C)c1Nc1ccnc(Nc2ccc(C#N)cc2)n1 [4-[[4-[[4-(2-cyanoethenyl)-2,6-dimethylphenyl]amino]-2-pyrimidinyl]amino]-benzonitrile]
HIV replication inhibiting activity (HIV): excellent

Reference: patent US20090215804A1, “FUMARATE OF 4- [[4- [[4- (2-CYANOETHENYL) -2,6-DIMETHYLPHENYL)AMINO] -2-PYRIMIDINYL]AMINO]BENZONITRILE” (priority 2004, published 2009)
